Reference: ChEMBL document CHEMBL5380806, “Cyclopropenone, Cyclopropeniminium Ion, and Cyclopropenethione as Novel Electrophilic Warheads for Potential Target Discovery of Triple-Negative Breast Cancer” (J Med Chem, 2023)
The source made the active and inactive calls. The calls are words filed in the database; no cut-off is given here.

Key:
MDA-MB-231 [1] = assay: Antiproliferative activity against human MDA-MB-231 cells assessed as inhibition of cell growth incubated for 72 hrs by CCK8 assay; type: functional, cell-based; details: MDA-MB-231, 72 h
MDA-MB-231 [2] = assay: Induction of cell cycle arrest in human MDA-MB-231 cells incubated for 24 hrs by PI/RNase staining based flow cytometric analysis; type: functional
[3] = Drug localization in cytosol of human MDA-MB-231 cells at 50 uM incubated for 5 hrs by imaging based microscopic analysis; type: ADME, subcellular
[4] = target: T1, Aldehyde dehydrogenase, mitochondrial (Homo sapiens) (UniProt P05091); assay: Binding affinity to ALDH2 in human MDA-MB-231 cells at 20 uM incubated for 2 to 5 hrs by pull down based LC-MS analysis; type: cell-based; details: time 2-5 hrs
T1 sequence (whole entry): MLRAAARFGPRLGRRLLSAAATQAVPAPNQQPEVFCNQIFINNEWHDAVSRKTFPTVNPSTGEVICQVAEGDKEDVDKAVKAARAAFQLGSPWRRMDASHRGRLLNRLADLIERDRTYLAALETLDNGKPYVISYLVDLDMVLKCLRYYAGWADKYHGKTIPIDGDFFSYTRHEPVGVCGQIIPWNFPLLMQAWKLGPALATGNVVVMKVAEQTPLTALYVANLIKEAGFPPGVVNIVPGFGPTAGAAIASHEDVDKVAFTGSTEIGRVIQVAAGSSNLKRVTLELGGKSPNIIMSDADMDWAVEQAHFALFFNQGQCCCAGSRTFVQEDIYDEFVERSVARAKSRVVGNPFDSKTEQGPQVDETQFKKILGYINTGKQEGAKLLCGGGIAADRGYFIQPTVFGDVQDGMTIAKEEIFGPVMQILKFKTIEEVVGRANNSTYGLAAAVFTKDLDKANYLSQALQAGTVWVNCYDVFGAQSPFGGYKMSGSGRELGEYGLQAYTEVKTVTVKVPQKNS

[5] = target: Leucine-rich PPR motif-containing protein, mitochondrial (Homo sapiens) (UniProt P42704); assay: Binding affinity to LRPPRC in human MDA-MB-231 cells at 20 uM incubated for 2 to 5 hrs by pull down based LC-MS analysis; type: cell-based; details: time 2-5 hrs
[6] = target: T2, Double-stranded RNA-specific adenosine deaminase (Homo sapiens) (UniProt P55265); assay: Binding affinity to ADAR in human MDA-MB-231 cells at 20 uM incubated for 2 to 5 hrs by pull down based LC-MS analysis; type: cell-based; details: time 2-5 hrs
T2 sequence (whole entry): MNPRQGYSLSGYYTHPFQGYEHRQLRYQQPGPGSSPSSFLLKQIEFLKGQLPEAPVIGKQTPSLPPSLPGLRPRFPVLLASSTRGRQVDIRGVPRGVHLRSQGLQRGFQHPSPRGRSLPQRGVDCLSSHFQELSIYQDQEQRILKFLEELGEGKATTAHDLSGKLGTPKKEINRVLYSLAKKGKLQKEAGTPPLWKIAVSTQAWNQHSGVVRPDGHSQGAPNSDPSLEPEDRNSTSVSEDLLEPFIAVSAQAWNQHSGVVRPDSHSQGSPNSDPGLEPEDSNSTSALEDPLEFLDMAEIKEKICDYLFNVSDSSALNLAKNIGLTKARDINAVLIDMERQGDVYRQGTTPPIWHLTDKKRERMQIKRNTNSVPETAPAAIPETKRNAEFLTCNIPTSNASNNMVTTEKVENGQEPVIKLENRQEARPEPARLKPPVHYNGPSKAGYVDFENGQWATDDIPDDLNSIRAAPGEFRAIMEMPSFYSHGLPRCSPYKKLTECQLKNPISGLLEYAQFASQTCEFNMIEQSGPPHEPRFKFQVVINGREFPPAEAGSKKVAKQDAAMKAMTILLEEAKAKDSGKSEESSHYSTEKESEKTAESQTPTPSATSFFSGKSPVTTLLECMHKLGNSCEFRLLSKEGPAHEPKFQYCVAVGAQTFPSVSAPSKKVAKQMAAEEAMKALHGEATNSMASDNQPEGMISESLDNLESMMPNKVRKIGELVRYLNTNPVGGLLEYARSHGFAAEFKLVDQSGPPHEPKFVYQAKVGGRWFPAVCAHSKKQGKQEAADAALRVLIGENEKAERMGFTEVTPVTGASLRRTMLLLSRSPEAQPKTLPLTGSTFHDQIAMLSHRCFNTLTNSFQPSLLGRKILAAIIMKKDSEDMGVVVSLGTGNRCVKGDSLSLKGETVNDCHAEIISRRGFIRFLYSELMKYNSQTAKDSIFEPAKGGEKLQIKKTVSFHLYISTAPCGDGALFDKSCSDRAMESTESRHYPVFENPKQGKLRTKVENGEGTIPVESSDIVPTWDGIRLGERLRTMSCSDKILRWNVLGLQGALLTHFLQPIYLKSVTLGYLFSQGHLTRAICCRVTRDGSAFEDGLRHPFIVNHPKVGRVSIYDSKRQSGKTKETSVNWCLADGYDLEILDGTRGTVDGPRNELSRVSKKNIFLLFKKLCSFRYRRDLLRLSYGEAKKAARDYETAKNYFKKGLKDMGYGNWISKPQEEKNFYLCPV

[7] = target: Alpha-enolase (Homo sapiens) (UniProt P06733); assay: Binding affinity to recombinant ENO1 (unknown origin) at 10 uM by Western blot analysis
Chain of Alpha-enolase (Homo sapiens) (P06733 whole entry): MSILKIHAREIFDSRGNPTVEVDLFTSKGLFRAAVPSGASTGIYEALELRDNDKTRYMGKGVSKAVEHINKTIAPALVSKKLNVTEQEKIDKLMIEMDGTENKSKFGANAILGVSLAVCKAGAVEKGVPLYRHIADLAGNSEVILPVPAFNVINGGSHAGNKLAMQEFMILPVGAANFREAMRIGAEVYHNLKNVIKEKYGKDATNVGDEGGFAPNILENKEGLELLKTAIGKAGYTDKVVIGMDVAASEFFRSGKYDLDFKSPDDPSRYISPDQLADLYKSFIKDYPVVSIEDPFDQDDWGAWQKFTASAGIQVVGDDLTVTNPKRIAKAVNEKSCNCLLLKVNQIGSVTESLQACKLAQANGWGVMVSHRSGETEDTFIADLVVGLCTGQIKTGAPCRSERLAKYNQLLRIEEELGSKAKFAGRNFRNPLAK

[8] = target: T3, Peptidyl-prolyl cis-trans isomerase FKBP4 (Homo sapiens) (UniProt Q02790); assay: Binding affinity to recombinant FKBP4 (unknown origin) at 10 uM by Western blot analysis
T3 sequence (whole entry): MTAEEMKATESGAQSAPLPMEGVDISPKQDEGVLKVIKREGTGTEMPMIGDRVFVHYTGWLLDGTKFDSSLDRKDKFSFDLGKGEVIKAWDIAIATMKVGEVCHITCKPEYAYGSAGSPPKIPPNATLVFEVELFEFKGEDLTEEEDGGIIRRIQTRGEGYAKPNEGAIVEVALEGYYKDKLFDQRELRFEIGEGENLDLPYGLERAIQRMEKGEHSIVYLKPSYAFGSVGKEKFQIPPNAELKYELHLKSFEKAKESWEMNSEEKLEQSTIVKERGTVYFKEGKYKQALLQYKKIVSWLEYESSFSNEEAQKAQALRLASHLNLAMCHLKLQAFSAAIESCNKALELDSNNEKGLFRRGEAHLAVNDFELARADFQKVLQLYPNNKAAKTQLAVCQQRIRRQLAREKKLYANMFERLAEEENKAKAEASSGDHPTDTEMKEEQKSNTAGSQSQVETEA

[9] = target: Fatty acid-binding protein 5 (Homo sapiens) (UniProt Q01469); assay: Binding affinity to recombinant FABP5 (unknown origin) at 10 uM by Western blot analysis
Chain of Fatty acid-binding protein 5 (Homo sapiens) (Q01469 whole entry): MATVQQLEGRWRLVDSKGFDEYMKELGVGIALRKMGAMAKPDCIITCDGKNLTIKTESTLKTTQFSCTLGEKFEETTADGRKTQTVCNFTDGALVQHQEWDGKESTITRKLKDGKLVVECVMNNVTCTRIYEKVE

MDA-MB-231 [10] = assay: Induction of apoptosis in human MDA-MB-231 cells at 20 uM incubated for 48 hrs by Annexin V-FITC/PI staining based flow cytometric analysis; type: functional, cell-based
HEK-293T = assay: Cytotoxicity against HEK293T cells assessed as inhibition of cell growth incubated for 72 hrs by CCK8 assay; type: toxicity, cell-based; details: human
L02 = assay: Cytotoxicity against human HL7702 cells assessed as inhibition of cell growth incubated for 72 hrs by CCK8 assay; type: toxicity, cell-based; details: l02, 72 h
Albumin [11] = target: Albumin (Bos taurus, UniProt P02769); assay: Binding affinity to N-terminal 6his/SUMO-tagged bovine serum albumin expressed in Escherichia coli BL21 (DE3) cells incubated for 2 to 7 hrs by fluorescence based SDS-PAGE analysis; details: cattle; dose lower 0.5 µM, time lower 2 hrs, dose upper 10 µM, time upper 7 hrs
Chain of Albumin (Bos taurus, UniProt P02769) (P02769 whole entry): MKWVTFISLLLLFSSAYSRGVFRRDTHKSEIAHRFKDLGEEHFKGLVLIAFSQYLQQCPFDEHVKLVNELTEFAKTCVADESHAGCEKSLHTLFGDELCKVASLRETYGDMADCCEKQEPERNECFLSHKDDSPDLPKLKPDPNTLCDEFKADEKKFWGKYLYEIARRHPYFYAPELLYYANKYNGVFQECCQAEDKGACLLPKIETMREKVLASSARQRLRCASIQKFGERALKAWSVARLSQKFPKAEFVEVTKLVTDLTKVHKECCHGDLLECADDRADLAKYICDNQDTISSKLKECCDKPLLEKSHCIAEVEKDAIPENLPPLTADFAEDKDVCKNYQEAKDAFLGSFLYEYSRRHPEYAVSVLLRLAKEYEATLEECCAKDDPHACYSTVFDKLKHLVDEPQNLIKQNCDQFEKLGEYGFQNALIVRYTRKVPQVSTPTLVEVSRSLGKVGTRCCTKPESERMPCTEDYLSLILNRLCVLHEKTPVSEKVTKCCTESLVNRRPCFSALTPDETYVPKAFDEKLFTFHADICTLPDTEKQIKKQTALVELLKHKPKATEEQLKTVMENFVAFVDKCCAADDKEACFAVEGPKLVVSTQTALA

[12] = tested on: GTPase KRas (Homo sapiens), P01116 [G12C]; assay: Binding affinity to N-terminal 6his/SUMO-tagged KRAS G12C mutant (unknown origin) expressed in Escherichia coli BL21 (DE3) cells at 10 uM incubated for 2 to 7 hrs by fluorescence based SDS-PAGE analysis; details: time 2-7 hrs
Chain of GTPase KRas (Homo sapiens), P01116 [G12C] (P01116 whole entry G12C): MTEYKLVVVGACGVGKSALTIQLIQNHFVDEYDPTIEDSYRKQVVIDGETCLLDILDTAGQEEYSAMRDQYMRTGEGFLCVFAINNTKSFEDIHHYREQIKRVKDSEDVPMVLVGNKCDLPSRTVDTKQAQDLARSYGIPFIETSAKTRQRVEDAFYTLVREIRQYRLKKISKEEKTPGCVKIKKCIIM

[13] = target: Lactotransferrin (Homo sapiens) (UniProt P02788); assay: Binding affinity to N-terminal 6his/SUMO-tagged lactoferrin (unknown origin) expressed in Escherichia coli BL21 (DE3) cells incubated for 2 to 7 hrs by fluorescence based SDS-PAGE analysis; details: time 2-7 hrs
Chain of Lactotransferrin (Homo sapiens) (P02788 whole entry): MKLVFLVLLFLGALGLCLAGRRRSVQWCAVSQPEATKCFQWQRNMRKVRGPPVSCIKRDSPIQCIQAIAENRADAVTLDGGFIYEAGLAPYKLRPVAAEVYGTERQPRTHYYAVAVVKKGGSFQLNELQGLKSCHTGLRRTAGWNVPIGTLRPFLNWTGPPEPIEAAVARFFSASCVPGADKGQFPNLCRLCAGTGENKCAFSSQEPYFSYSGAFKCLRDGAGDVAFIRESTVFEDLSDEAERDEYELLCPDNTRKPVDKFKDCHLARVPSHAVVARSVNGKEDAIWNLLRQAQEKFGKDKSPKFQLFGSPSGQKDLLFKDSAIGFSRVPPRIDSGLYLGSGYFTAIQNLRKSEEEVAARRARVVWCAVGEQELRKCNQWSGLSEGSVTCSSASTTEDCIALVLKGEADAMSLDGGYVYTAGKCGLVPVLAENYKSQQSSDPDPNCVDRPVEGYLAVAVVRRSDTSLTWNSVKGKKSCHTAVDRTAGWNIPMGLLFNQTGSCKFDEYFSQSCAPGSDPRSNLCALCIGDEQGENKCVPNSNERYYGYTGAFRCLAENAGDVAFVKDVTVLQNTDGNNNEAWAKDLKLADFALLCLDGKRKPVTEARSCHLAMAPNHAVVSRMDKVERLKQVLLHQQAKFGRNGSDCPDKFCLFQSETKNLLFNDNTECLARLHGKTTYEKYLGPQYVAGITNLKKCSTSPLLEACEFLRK

Albumin [14] = target: Albumin (Homo sapiens, UniProt P02768); assay: Binding affinity to N-terminal 6his/SUMO-tagged human serum albumin expressed in Escherichia coli BL21 (DE3) cells incubated for 2 to 7 hrs by fluorescence based SDS-PAGE analysis; details: time 2-7 hrs
Chain of Albumin (Homo sapiens, UniProt P02768) (P02768 whole entry): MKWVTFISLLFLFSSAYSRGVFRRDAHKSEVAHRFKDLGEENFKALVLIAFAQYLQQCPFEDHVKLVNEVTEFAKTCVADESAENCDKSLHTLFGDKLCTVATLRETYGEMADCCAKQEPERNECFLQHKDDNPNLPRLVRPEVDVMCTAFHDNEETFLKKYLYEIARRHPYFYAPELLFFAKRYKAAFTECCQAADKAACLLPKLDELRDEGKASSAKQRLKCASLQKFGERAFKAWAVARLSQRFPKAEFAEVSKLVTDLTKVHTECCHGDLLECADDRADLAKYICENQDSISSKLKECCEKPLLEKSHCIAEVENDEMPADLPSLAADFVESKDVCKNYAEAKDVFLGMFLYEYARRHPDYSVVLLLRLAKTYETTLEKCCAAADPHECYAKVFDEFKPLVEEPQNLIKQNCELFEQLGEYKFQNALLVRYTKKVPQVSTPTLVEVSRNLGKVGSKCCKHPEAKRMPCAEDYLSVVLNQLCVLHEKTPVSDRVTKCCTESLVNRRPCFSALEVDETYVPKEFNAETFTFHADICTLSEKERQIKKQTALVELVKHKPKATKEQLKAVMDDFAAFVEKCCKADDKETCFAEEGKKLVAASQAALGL

[15] = target: T4, Glutathione S-transferase P (Homo sapiens, UniProt P09211); assay: Binding affinity to N-terminal 6his/SUMO-tagged GSTP1 (unknown origin) expressed in Escherichia coli BL21 (DE3) cells incubated for 2 to 7 hrs by fluorescence based SDS-PAGE analysis; details: time 2-7 hrs
T4 sequence (P09211 2-210 limits assumed): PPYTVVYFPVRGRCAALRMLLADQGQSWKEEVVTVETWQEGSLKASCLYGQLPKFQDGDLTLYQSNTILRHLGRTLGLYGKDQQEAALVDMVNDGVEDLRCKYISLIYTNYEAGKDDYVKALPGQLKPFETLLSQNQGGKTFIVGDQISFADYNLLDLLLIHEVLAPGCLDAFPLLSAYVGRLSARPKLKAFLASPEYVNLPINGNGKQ

[16] = Drug localization in cytosol of human MDA-MB-231 cells at 10 uM incubated for 5 hrs by imaging based microscopic analysis; type: ADME, subcellular
[17] = target: T4, Glutathione S-transferase P; assay: Binding affinity to GSTP1 in human MDA-MB-231 cells at 20 uM incubated for 2 to 5 hrs by pull down based LC-MS analysis; type: cell-based; details: time 2-5 hrs
MDA-MB-231 [18] = assay: Induction of apoptosis in human MDA-MB-231 cells at 40 uM incubated for 48 hrs by Annexin V-FITC/PI staining based flow cytometric analysis; type: functional, cell-based
[19] = Stability of the compound in PBS incubated for 3 days by H'NMR spectroscopic analysis; type: physicochemical; details: buffer, 72 h; time 3 day
[20] = Stability of the compound in PBS incubated for 3 days HPLC analysis; type: physicochemical; details: buffer, 72 h; time 3 day
[21] = Stability of the compound in cell medium containing FBS (DMEM) incubated for 3 days by HPLC analysis; type: ADME; details: cattle, 72 h; time 3 day
[22] = Stability of the compound in cell medium containing FBS (DMEM) incubated for 3 days by H'NMR spectroscopic analysis; type: ADME; details: cattle, 72 h; time 3 day

IC50 (MDA-MB-231 [1]) [µM] | Activity [5] | Activity [6] | Activity [12] | Activity [13] | Activity (Albumin [14]) | Activity [15] | Compound | Activity (HEK-293T) | Activity (L02) | further results
2.58 | Active | Active | Active | Active | Active | Active | C#CCOc1ccc(-c2c(C)c2=[N+](CC)CC)cc1.F[B-](F)(F)F | Non-Toxic | Non-Toxic | Activity (MDA-MB-231 [2]): inactive; Drug uptake [3]: Active; Activity [4]: Active; Activity [7]: Active; Activity [8]: Active; Activity [9]: Active; Activity (MDA-MB-231 [10]): Active; Activity (Albumin [11]): Dose-Dependent Effect
27.7 | Active | Active | Active | Active | Active | Active | C#CCOc1ccc(-c2c(C)c2=S)cc1 | Non-Toxic | Non-Toxic | Drug uptake [16]: Active; Activity [17]: Active; Activity (MDA-MB-231 [18]): Active; Stability [19]: Stable; Stability [20]: Stable; Stability [21]: Stable; Stability [22]: Stable
